The source made the active and inactive calls. The calls are words filed in the database; no cut-off is given here.
What was measured:
[1] = target: T1, Nitric oxide synthase, inducible (Mus musculus) (UniProt P29477); test: Inhibition of iNOS activity in LPS-stimulated mouse RAW264.7 cells assessed as conversion of L-[…] arginine to L-[3H] citruline per mg of protein at 10 ug/ml after 24 hrs; format: cell-based
T1 sequence (whole entry): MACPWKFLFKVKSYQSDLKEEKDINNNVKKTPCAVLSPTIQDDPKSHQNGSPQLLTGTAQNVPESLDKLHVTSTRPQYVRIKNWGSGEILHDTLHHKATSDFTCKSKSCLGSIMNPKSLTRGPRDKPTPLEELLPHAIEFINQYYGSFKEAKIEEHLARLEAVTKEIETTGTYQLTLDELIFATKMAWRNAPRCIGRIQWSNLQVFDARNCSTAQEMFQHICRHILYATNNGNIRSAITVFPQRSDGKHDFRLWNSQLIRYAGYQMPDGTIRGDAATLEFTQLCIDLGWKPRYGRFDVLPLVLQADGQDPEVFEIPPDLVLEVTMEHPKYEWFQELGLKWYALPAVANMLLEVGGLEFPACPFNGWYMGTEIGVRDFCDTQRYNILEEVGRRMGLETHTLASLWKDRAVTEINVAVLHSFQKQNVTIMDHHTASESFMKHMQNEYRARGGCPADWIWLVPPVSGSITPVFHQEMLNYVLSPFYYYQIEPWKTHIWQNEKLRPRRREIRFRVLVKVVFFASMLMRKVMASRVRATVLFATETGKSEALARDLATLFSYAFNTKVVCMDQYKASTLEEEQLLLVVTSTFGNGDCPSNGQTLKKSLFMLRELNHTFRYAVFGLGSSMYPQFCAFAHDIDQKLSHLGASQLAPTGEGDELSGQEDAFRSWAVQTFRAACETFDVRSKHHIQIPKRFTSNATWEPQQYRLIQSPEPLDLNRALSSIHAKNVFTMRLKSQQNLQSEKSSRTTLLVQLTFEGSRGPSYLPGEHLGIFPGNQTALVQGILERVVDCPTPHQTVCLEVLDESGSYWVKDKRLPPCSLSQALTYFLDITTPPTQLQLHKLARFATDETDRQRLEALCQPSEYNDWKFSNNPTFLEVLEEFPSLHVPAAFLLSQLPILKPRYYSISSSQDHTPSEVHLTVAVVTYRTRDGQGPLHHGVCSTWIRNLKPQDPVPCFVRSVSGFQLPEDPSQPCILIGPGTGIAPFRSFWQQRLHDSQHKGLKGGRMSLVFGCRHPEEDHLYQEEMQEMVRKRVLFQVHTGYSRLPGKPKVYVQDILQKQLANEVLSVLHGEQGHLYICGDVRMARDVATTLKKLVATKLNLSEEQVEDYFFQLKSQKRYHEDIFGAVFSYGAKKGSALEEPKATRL

[2] = target: T1, Nitric oxide synthase, inducible (Mus musculus); test: Inhibition of iNOS-mediated nitric oxide production in LPS-stimulated mouse RAW264.7 cells at 10 ug/ml measured after 24 hrs by Griess reaction method; format: cell-based
[3] = target: T1, Nitric oxide synthase, inducible (Mus musculus); test: Inhibition of iNOS activity in LPS-stimulated mouse RAW264.7 cells assessed as conversion of L-[…] arginine to L-[3H] citruline per mg of protein at 200 ug/ml after 24 hrs; format: cell-based
RAW264.7 [4] = test: Cytotoxicity against mouse RAW264.7 cells at 25 to 200 ug/ml after 24 hrs by MTT assay; format: cell-based; settings: raw264.7, 24 h
[5] = target: T1, Nitric oxide synthase, inducible (Mus musculus); test: Inhibition of iNOS activity in LPS-stimulated mouse RAW264.7 cells assessed as conversion of L-[…] arginine to L-[3H] citruline per mg of protein at 50 ug/ml after 24 hrs; format: cell-based
RAW264.7 [6] = test: Inhibition of iNOS mRNA expression in LPS-stimulated mouse RAW264.7 cells at 25 ug/ml after 24 hrs by real time fluorescent quantitative real time PCR relative to negative control; format: functional
[7] = target: T1, Nitric oxide synthase, inducible (Mus musculus); test: Inhibition of iNOS-mediated nitric oxide production in LPS-stimulated mouse RAW264.7 cells at 25 to 200 ug/ml measured after 24 hrs by Griess reaction method; format: cell-based
RAW264.7 [8] = test: Antiinflammatory activity in mouse RAW264.7 cells assessed as inhibition of LPS-induced IL-6 release by ELISA; format: functional, cell-based
RAW264.7 [9] = test: Antiinflammatory activity in mouse RAW264.7 cells assessed as inhibition of LPS-induced TNFalpha release by ELISA; format: functional, cell-based
[10] = target: T1, Nitric oxide synthase, inducible (Mus musculus); test: Inhibition of iNOS activity in LPS-stimulated mouse RAW264.7 cells assessed as conversion of L-[…] arginine to L-[3H] citruline per mg of protein at 25 ug/ml after 24 hrs; format: cell-based
RAW264.7 [11] = test: Inhibition of iNOS mRNA expression in LPS-stimulated mouse RAW264.7 cells at 200 ug/ml after 24 hrs by real time fluorescent quantitative real time PCR relative to negative control; format: functional
RAW264.7 [12] = test: Antiinflammatory activity in mouse RAW264.7 cells assessed as inhibition of LPS-induced IL-1 release by ELISA; format: functional, cell-based
[13] = target: T1, Nitric oxide synthase, inducible (Mus musculus); test: Inhibition of iNOS activity in LPS-stimulated mouse RAW264.7 cells assessed as conversion of L-[…] arginine to L-[3H] citruline per mg of protein at 100 ug/ml after 24 hrs; format: cell-based
RAW264.7 [14] = test: Inhibition of iNOS mRNA expression in LPS-stimulated mouse RAW264.7 cells at 100 ug/ml after 24 hrs by real time fluorescent quantitative real time PCR relative to negative control; format: functional
RAW264.7 [15] = test: Inhibition of iNOS mRNA expression in LPS-stimulated mouse RAW264.7 cells at 50 ug/ml after 24 hrs by real time fluorescent quantitative real time PCR relative to negative control; format: functional
RAW264.7 [16] = test: Inhibition of LPS-induced NF-kappaB activation in mouse RAW264.7 cells expressing pNF-kappaB-LUC at 25 to 200 ug/ml after 24 hrs by luciferase reporter gene assay relative to unstimulated cells; format: cell-based
[17] = target: T1, Nitric oxide synthase, inducible (Mus musculus); test: Inhibition of iNOS activity in LPS-stimulated mouse RAW264.7 cells assessed as conversion of L-[…] arginine to L-[3H] citruline per mg of protein after 24 hrs; format: cell-based
[18] = target: T1, Nitric oxide synthase, inducible (Mus musculus); test: Inhibition of iNOS-mediated nitric oxide production in LPS-stimulated mouse RAW264.7 cells measured after 24 hrs by Griess reaction method; format: cell-based

Row | Compound | Activity [1] [pmol/min] | inhibition [2] | Activity [3] [pmol/min] | Activity (RAW264.7 [4]) | Activity [5] [pmol/min] | fold change (FC) (RAW264.7 [6]) | inhibition [7] | inhibition (RAW264.7 [8]) | inhibition (RAW264.7 [9]) | Activity [10] [pmol/min] | fold change (FC) (RAW264.7 [11]) | inhibition (RAW264.7 [12]) | Activity [13] [pmol/min] | fold change (FC) (RAW264.7 [14]) | fold change (FC) (RAW264.7 [15]) | inhibition (RAW264.7 [16]) | inhibition [17] | inhibition [18]
1 | N=C(N)NN | 2.7 | inactive | – | – | – | – | – | – | – | – | – | – | – | – | – | – | – | –
2 | CC1(C)C[C@H]2C3=CC[C@@H]4[C@@]5(C)CC[C@H](O)[C@](C)(CO)[C@@H]5CC[C@@]4(C)[C@]3(C)CC[C@@]2(C)[C@H](O)[C@@H]1O [SOYASAPOGENOL A] | – | – | 27 | Non-toxic | 27 | 15.1 | inactive | inactive | inactive | 27.7 | 15.3 | inactive | 26.9 | 15.1 | 15 | – | – | –
3 | CC1(C)C[C@@H](O)[C@]2(C)CC[C@]3(C)C(=CC[C@@H]4[C@@]5(C)CC[C@H](O)[C@](C)(CO)[C@@H]5CC[C@]43C)[C@@H]2C1 [SOYASAPOGENOL B] | – | – | 27.1 | Non-toxic | 26.5 | 14.7 | inactive | inactive | inactive | 27.4 | 15.4 | inactive | 26.6 | 14.7 | 14.8 | – | – | –
4 | CC1(C)C[C@H]2C3=CC[C@@H]4[C@@]5(C)CC[C@H](O[C@@H]6O[C@H](C(=O)O)[C@@H](O)[C@H](O)[C@H]6O[C@@H]6O[C@H](CO)[C@H](O)[C@H](O)[C@H]6O[C@@H]6O[C@H](CO)[C@@H](O)[C@H](O)[C@H]6O)[C@](C)(CO)[C@@H]5CC[C@@]4(C)[C@]3(C)CC[C@@]2(C)[C@H](O[C@@H]2OC[C@H](O)[C@@H](O)[C@H]2O[C@@H]2O[C@H](CO)[C@@H](O)[C@@H](O)[C@H]2O)[C@@H]1O [SOYASAPONIN A1] | – | – | 6.2 | Non-toxic | 18.3 | 11.6 | – | inactive | Active | 22.3 | 5.1 | inactive | 11.4 | 7.5 | 11.3 | Dose-dependent effect | Dose-dependent effect | Dose-dependent effect
5 | CC1(C)C[C@H]2C3=CC[C@@H]4[C@@]5(C)CC[C@H](O[C@@H]6O[C@H](C(=O)O)[C@@H](O)[C@H](O)[C@H]6O[C@@H]6O[C@H](CO)[C@@H](O)[C@@H](O)[C@H]6O)[C@](C)(CO)[C@@H]5CC[C@@]4(C)[C@]3(C)CC[C@@]2(C)[C@H](O[C@@H]2OC[C@H](O)[C@@H](O)[C@H]2O[C@@H]2O[C@H](CO)[C@@H](O)[C@@H](O)[C@H]2O)[C@@H]1O [SOYASAPONIN A2] | – | – | 9.3 | Non-toxic | 19 | 11.4 | – | inactive | Active | 23.6 | 4.4 | inactive | 14 | 5.7 | 10.7 | Dose-dependent effect | Dose-dependent effect | Dose-dependent effect
6 | C[C@@H]1O[C@@H](O[C@H]2[C@H](O[C@H]3[C@H](O[C@H]4CC[C@@]5(C)[C@@H](CC[C@]6(C)[C@@H]5CC=C5[C@@H]7CC(C)(C)C[C@@H](O)[C@]7(C)CC[C@]56C)[C@@]4(C)CO)O[C@H](C(=O)O)[C@@H](O)[C@@H]3O)O[C@H](CO)[C@H](O)[C@@H]2O)[C@H](O)[C@H](O)[C@H]1O [SOYASAPONIN I] | – | – | 9.2 | Non-toxic | 16.6 | 11.1 | – | inactive | Active | 24 | 5.6 | inactive | 11.7 | 6.8 | 8.8 | Dose-dependent effect | Dose-dependent effect | Dose-dependent effect

— ChEMBL document CHEMBL1759962, “Anti-inflammatory effect of soyasaponins through suppressing nitric oxide production in LPS-stimulated RAW 264.7 cells by attenuation of NF-κB-mediated nitric oxide synthase expression” (Bioorg Med Chem Lett, 2011)
